Reference: US20260157986A1, “METHODS OF TREATMENT OF PRIMARY BILIARY CHOLANGITIS” (Ipsen Pharma, priority 2024, published 2026)

Legend:
patients with PBC [1] = conditions: in vivo; cited from earlier work
[2] = tested on: participants with PBC with inadequate response or intolerance to UDCA; experiment: ELATIVE phase III double-blind, randomised, placebo-controlled study (GFT505B-319-1, NCT04526665); type: in vivo, human
Method: This was assessed based on the primary endpoint, which combined reductions in ALP and total bilirubin (TB).

[3] = tested on: participants with PBC and baseline ALP >1×ULN and <1.67×ULN; experiment: Phase IIIb randomised, double-blind, placebo-controlled, two-arm study (Example 1); type: in vivo, human; conditions: 80 mg once daily versus placebo; baseline ALP more than 1×ULN and at most 1.67×ULN
subjects with PBC = experiment: Clinical study, not further specified (Summary); type: in vivo, human; conditions: treatment of subjects with elafibranor
patients with PBC [4] = conditions: cited from earlier work

## C[C@H](CCC(=O)O)[C@H]1CC[C@H]2[C@@H]3[C@@H](O)C[C@@H]4C[C@H](O)CC[C@]4(C)[C@H]3CC[C@]12C [UDCA, Ursodeoxycholic acid]
Patients with PBC [1]
  proportion of PBC patients intolerant to UDCA: up to 5%

## CSc1ccc(C(=O)/C=C/c2cc(C)c(OC(C)(C)C(=O)O)c(C)c2)cc1 [elafibranor]
[2]; compared to placebo, double-blind period
  improvement in cholestasis (primary endpoint combining reductions in ALP and total bilirubin): greater improvement in cholestasis compared to placebo
[2]; patients with PBC
  safety and tolerability: safe and well-tolerated
[3]
  prevention of clinical outcome events showing disease worsening (including progression leading to liver transplant or death): better than placebo
Subjects with PBC
  biochemical markers in the plasma: relevant reduction of biochemical markers in the plasma

## CC[C@H]1[C@@H](O)[C@@H]2[C@H](CC[C@]3(C)[C@@H]([C@H](C)CCC(=O)O)CC[C@@H]23)[C@@]2(C)CC[C@@H](O)C[C@@H]12 [obeticholic acid]
Patients with PBC [4]; patients with advanced cirrhosis
  liver failure: reports of patients with advanced cirrhosis developing liver failure
Patients with PBC [4]; second line therapy
  pruritus: clinically significant pruritus has been reported in a significant portion of patients
